Source: ChEMBL document CHEMBL5329216, “Discovery of conformationally constrained c-Abl inhibitors with potential neuroprotective effects against Parkinson's disease” (Bioorg Med Chem, 2023)

Legend:
[1] = Cytotoxicity against human SH-SY5Y cells assessed as reduction in cell viability incubated for 48 hrs by MTT assay; format: toxicity, cell-based
[2] = Cytotoxicity against human L02 cells assessed as reduction in cell viability incubated for 48 hrs by MTT assay; format: toxicity, cell-based
[3] = Cytotoxicity against HEK293 cells assessed as reduction in cell viability incubated for 48 hrs by MTT assay; format: toxicity, cell-based; conditions: human
SH-SY5Y [4] = assay: Neuroprotective activity against MPP+-induced human SH-SY5Y cells assessed as reduction in cell death at 5 uM measured after 48 hrs by MTT assay relative to control; format: functional; design: scale not given: the % may be the effect or the level left
SH-SY5Y [5] = assay: Neuroprotective activity against MPP+-induced human SH-SY5Y cells assessed as reduction in cell death at 0.08 to 5 uM measured after 48 hrs by MTT assay relative to control; format: functional; design: scale not given: the % may be the effect or the level left; conditions: dose 0.08-5 µM

Row | Compound | IC50 at 48 h [1] [µM] | IC50 at 48 h [2] [µM] | IC50 at 48 h [3] [µM] | Activity (SH-SY5Y [4]) [%] | Activity (SH-SY5Y [5]) [%]
1 | Cc1ccc(C(=O)Nc2ccc(CN3CCN(C)CC3)c(C(F)(F)F)c2)cc1Nc1cccc2c1C(=O)C(=O)N2C | 23.6 | > 80 | 16.6 |  | 
2 | Cc1ccc(C(=O)Nc2cc(-c3cnn(C)c3)cc(C(F)(F)F)c2)cc1Nc1cccc2c1C(=O)C(=O)N2C | > 80 | > 80 | > 80 |  | 
3 | Cc1cn(-c2cc(NC(=O)c3ccc(C)c(Nc4nccc(-c5cccnc5)n4)c3)cc(C(F)(F)F)c2)cn1 [NILOTINIB] |  | 37 | 8.2 | 20 | 6.9
